From PMC9020739, “Identification of a two-component regulatory system involved in antimicrobial peptide resistance in Streptococcus pneumoniae” (PLoS Pathogens, 2022)
Where a SMILES comes first, the peptide text is derived from it. Bridges are numbered along the chain shown (N, C = ends). [ ]: non-standard residue; d: D form. The star is where a group is joined. X1 = CC[C@H](C)CCCCC(=O)*; Dab = NCC[C@H](N)C(=O)O

What was measured:
[1] = target: BceAB transporter from S. pneumoniae (Streptococcus pneumoniae, UniProt A0A0H2ZN40); assay type: biochemical; details: for nH (positive cooperativity): ATPase/GTPase activity as a function of nucleotide concentration, fitted with positive cooperativity, proteoliposomes
Method: E. coli BL21(DE3) cells were transformed with pRSF-Duet1-BceAB WT, K48A or E170Q and selected on LB-agar plates containing 50 μg/mL kanamycin. One colony was inoculated into in 2L-baffled flasks containing 500 mL of 2YT medium and 50 μg/mL kanamycin and grown at 37°C, 180 rpm to OD600 of 0.6. Protein expression was induced by adding IPTG to a final concentration of 1 mM. Induction was performed overnight at 25°C and cells were harvested by centrifugation at 7,000 g for 20 min.
Cells were resuspended in buffer A (HEPES-NaOH 100 mM pH 8.0, NaCl 150 mM) and lysed by passaging them three times through a cell disruptor (Microfluidizer, Microfluidics) at 18,000 psi (or 1,24 x 108 Pa). Undisrupted cells and cell debris were removed by centrifugation at 15,000 x g for 30 min at 4°C. Membranes were harvested from the supernatant after ultracentrifugation at 150,000 x g for 1 h at 4°C. Membranes were resuspended in 20 mL of buffer A and centrifuged once again at 150,000 x g for 1 h at 4°C. Membrane pellets were homogenized in buffer HEPES-NaOH 100 mM pH 8.0, NaCl 150 mM and 20% glycerol, and stored at -80°C.
For the purification of BceAB, membranes from 0,5 L cell culture were diluted in buffer B (100 mM d’HEPES-NaOH pH 8, 150 mM NaCl, 10% glycerol) to a protein concentration of 4 mg/mL and solubilized with 0.5% (w/v) LMNG for 2 h at 4°C. After ultracentrifugation at 150,000 x g for 1 h at 4°C, the supernatant containing solubilized proteins was diluted four times using buffer B and loaded on Ni^2+-charged immobilized metal-ion affinity chromatography (IMAC) column (1 mL HisTrap HP, Cytiva). The column was washed with 10 mL of buffer B containing 0.005% (w/v) LMNG and 20 mM of imidazole. The column was further washed with the same buffer until OD280nm reached basal levels. BceAB was eluted by buffer B containing 0.005% (w/v) LMNG and an imidazole gradient from 20 to 500 mM of imidazole. Purified BceAB was dialyzed into buffer B containing 0.005% (w/v) LMNG and stored at -80°C.
The proteoliposomes were prepared as previously described for the transporter BmrA [50]. Proteoliposomes were loaded on sucrose gradient with different layers of 400 μL of 50 mM HEPES-KOH pH 8.0 buffer containing 30, 20, 15 or 10% of sucrose. One mL of proteoliposomes was loaded on the top of the sucrose gradient and ultra-centrifuged at 200,000 x g for 12 h at 4°C. Proteoliposomes were typically collected from the 15% layer and were loaded on SDS-PAGE to analyze and quantify the presence of BceAB by using a standard-curve of purified BceAB and ImageJ.
These activities were performed as previously described.

S. pneumoniae R6 ΔbceAB = assay type: cell-based, Streptococcus pneumoniae; details: R6 strain; 2-fold broth dilution, Todd-Hewitt medium, 37°C, 15 h; two to four biological replicates, each technical duplicates
Method: (§1) The MIC of various antimicrobial peptides for R6, R800 and D39 strains was determined by classical 2-fold broth dilution method. Cells were first grown in Todd-Hewitt medium at 37°C without agitation and in anaerobic conditions until the absorbance reaches approximatively 0.3. Complementation strains were grown with 0.5 μM ComS inducer until the appropriate OD. Cells were then diluted at final OD600nm = 0.002 in 96-well plates containing 300 μL of Todd-Hewitt medium (and 2 μM ComS inducer for the complementation strains) with serial dilutions of antimicrobial peptides. Pneumococcal growth was monitored by a microplate reader (TECAN) at 37°C without agitation. The absorbance was followed at 600 nm every 15 min for 15 h.

S. pneumoniae R6 WT = assay type: cell-based, Streptococcus pneumoniae; details: R6 strain; for Minimum Inhibitory Concentration, WT: 2-fold broth dilution, Todd-Hewitt medium, 96-well plates, start OD600 0.002, 37°C, A600 followed 15 h, two to four biological replicates, each technical duplicates; for Fold sensitivity displayed by the KO strains: KO strains versus WT MIC
Method: as §1

[2] = test system: S. pneumoniae R6 ΔbceAB/tcs01; assay type: cell-based, Streptococcus pneumoniae; details: R6 strain; 2-fold broth dilution, Todd-Hewitt medium, 37°C, 15 h; two to four biological replicates, each technical duplicates
Method: as §1

S. pneumoniae R6 Δtcs01 = assay type: cell-based, Streptococcus pneumoniae; details: R6 strain; 2-fold broth dilution, Todd-Hewitt medium, 37°C, 15 h; two to four biological replicates, each technical duplicates
Method: as §1

S. pneumoniae R800 WT = assay type: cell-based, Streptococcus pneumoniae; details: R800 strain; 2-fold broth dilution, Todd-Hewitt medium, 37°C, 15 h; at least biological triplicates, each technical duplicates
Method: as §1

[3] = test system: S. pneumoniae R800 bceAB-gfp; assay type: cell-based, Streptococcus pneumoniae; details: R800 strain; 2-fold broth dilution, Todd-Hewitt medium, 37°C, 15 h; at least biological triplicates, each technical duplicates
Method: as §1

S. pneumoniae D39 WT = assay type: cell-based, Streptococcus pneumoniae; details: D39 strain; for Minimum Inhibitory Concentration, WT: 2-fold broth dilution, Todd-Hewitt medium, 37°C, 15 h, two to four biological replicates, each technical duplicates; for Fold sensitivity diplayed by the KO strains: KO strains versus WT MIC
Method: as §1

[4] = test system: S. pneumoniae R800 Δhk01-PcomX-hk01; assay type: cell-based, Streptococcus pneumoniae; details: R800 complementation strain, 2 μM ComS inducer; 2-fold broth dilution, Todd-Hewitt medium, 37°C, 15 h; at least biological triplicates, each technical duplicates
Method: as §1

[5] = test system: S. pneumoniae D39 ΔbceAB/tcs01; assay type: cell-based, Streptococcus pneumoniae; details: D39 strain; 2-fold broth dilution, Todd-Hewitt medium, 37°C, 15 h; two to four biological replicates, each technical duplicates
Method: as §1

[6] = test system: S. pneumoniae R800 ΔbceAB; assay type: cell-based, Streptococcus pneumoniae; details: R800 strain; 2-fold broth dilution, Todd-Hewitt medium, 37°C, 15 h; at least biological triplicates, each technical duplicates
Method: as §1

[7] = test system: S. pneumoniae R800 ΔbceAB-Δhk01-PcomX-hk01; assay type: cell-based, Streptococcus pneumoniae; details: R800 complementation strain, 2 μM ComS inducer; 2-fold broth dilution, Todd-Hewitt medium, 37°C, 15 h; at least biological triplicates, each technical duplicates
Method: as §1

S. pneumoniae R800 Δhk01 = assay type: cell-based, Streptococcus pneumoniae; details: R800 strain; 2-fold broth dilution, Todd-Hewitt medium, 37°C, 15 h; at least biological triplicates, each technical duplicates
Method: as §1

S. pneumoniae D39 Δtcs01 = assay type: cell-based, Streptococcus pneumoniae; details: D39 strain; 2-fold broth dilution, Todd-Hewitt medium, 37°C, 15 h; two to four biological replicates, each technical duplicates
Method: as §1

S. pneumoniae D39 ΔbceAB = assay type: cell-based, Streptococcus pneumoniae; details: D39 strain; 2-fold broth dilution, Todd-Hewitt medium, 37°C, 15 h; two to four biological replicates, each technical duplicates
Method: as §1

Compound | Minimum Inhibitory Concentration, ΔbceAB (S. pneumoniae R6 ΔbceAB) | Minimum Inhibitory Concentration, WT (S. pneumoniae R6 WT) | Fold sensitivity displayed by the KO strains (S. pneumoniae R6 WT) | Minimum Inhibitory Concentration, ΔbceAB/tcs01 [2] | Minimum Inhibitory Concentration, Δtcs01 (S. pneumoniae R6 Δtcs01) | other results
Nc1ncnc2c1ncn2[C@@H]1O[C@H](COP(=O)(O)OP(=O)(O)OP(=O)(O)O)[C@@H](O)[C@H]1O [ATP] | – | – | – | – | – | nH (positive cooperativity) [1]: 2.4
Nc1nc2c(ncn2[C@@H]2O[C@H](COP(=O)(O)OP(=O)(O)OP(=O)(O)O)[C@@H](O)[C@H]2O)c(=O)[nH]1 [GTP] | – | – | – | – | – | nH (positive cooperativity) [1]: 1.9
CC[C@H](C)CCCCC(=O)N[C@@H](CCN)C(=O)N[C@H](C(=O)N[C@@H](CCN)C(=O)N[C@H]1CCNC(=O)[C@H]([C@@H](C)O)NC(=O)[C@H](CCN)NC(=O)[C@H](CCN)NC(=O)[C@H](CC(C)C)NC(=O)[C@@H](CC(C)C)NC(=O)[C@H](CCN)NC1=O)[C@@H](C)O [colistin] (X1-[Dab]T[Dab][Dab][Dab][dL]L[Dab][Dab]T; lactam 4-C (inferred); N-terminus assumed) | 256 µg/mL | 256 µg/mL | 1 | 256 µg/mL | 256 µg/mL | –
CC[C@H](C)[C@H](N)C(=O)N[C@@H](CC(N)=O)C(=O)N[C@@H](CC(C)C)C(=O)N[C@@H](CCCCN)C(=O)N[C@@H](C)C(=O)N[C@@H](CC(C)C)C(=O)N[C@@H](C)C(=O)N[C@@H](C)C(=O)N[C@@H](CC(C)C)C(=O)N[C@@H](C)C(=O)N[C@@H](CCCCN)C(=O)N[C@@H](CCCCN)C(=O)N[C@H](C(=O)N[C@@H](CC(C)C)C(N)=O)[C@@H](C)CC [mastoporan] | – | – | 1 | – | – | –
Microbisporicin [Microbisporicin (NAI-107)] | 0.008 µg/mL | 0.032 µg/mL | 4 | 0.008 µg/mL | 0.008 µg/mL | –
Planosporicin [Planosporicin (NAI-97)] | 2 µg/mL | 16 µg/mL | 8 | 2 µg/mL | 2 µg/mL | –
actagardin | 2 µg/mL | 32 µg/mL | 16 | 2 µg/mL | 2 µg/mL | MIC, WT (S. pneumoniae R800 WT): 32 µg/mL; MIC, bceAB-gfp [3]: 32 µg/mL; Minimum Inhibitory Concentration, WT (S. pneumoniae D39 WT): 32 µg/mL; Fold sensitivity diplayed by the KO strains (S. pneumoniae D39 WT): 16; MIC, Δhk01-PcomX-hk01 [4]: 32 µg/mL; Minimum Inhibitory Concentration, ΔbceAB/tcs01 [5]: 2 µg/mL; MIC, ΔbceAB [6]: 4 µg/mL; MIC, ΔbceAB-Δhk01-PcomX-hk01 [7]: 4 µg/mL; MIC, Δhk01 (S. pneumoniae R800 Δhk01): 4 µg/mL; Minimum Inhibitory Concentration, Δtcs01 (S. pneumoniae D39 Δtcs01): 2 µg/mL; Minimum Inhibitory Concentration, ΔbceAB (S. pneumoniae D39 ΔbceAB): 2 µg/mL
gramicidin | 0.016 µg/mL | 0.016 µg/mL | 1 | 0.016 µg/mL | 0.016 µg/mL | –
ramoplanin | 0.02 µg/mL | 0.02 µg/mL | 1 | 0.02 µg/mL | 0.02 µg/mL | Effect on ATPase activity of BceAB ([1]; BceAB proteoliposomes, Fig 7B, triplicates, representative of at least two experiments): clear inhibitory effect; MIC, WT (S. pneumoniae R800 WT): 0.02 µg/mL; MIC, bceAB-gfp [3]: 0.02 µg/mL; Minimum Inhibitory Concentration, WT (S. pneumoniae D39 WT): 0.03 µg/mL; Fold sensitivity diplayed by the KO strains (S. pneumoniae D39 WT): 1; MIC, Δhk01-PcomX-hk01 [4]: 0.02 µg/mL; Minimum Inhibitory Concentration, ΔbceAB/tcs01 [5]: 0.03 µg/mL; MIC, ΔbceAB [6]: 0.02 µg/mL; MIC, ΔbceAB-Δhk01-PcomX-hk01 [7]: 0.02 µg/mL; MIC, Δhk01 (S. pneumoniae R800 Δhk01): 0.02 µg/mL; Minimum Inhibitory Concentration, Δtcs01 (S. pneumoniae D39 Δtcs01): 0.03 µg/mL; Minimum Inhibitory Concentration, ΔbceAB (S. pneumoniae D39 ΔbceAB): 0.03 µg/mL
